The source made the active and inactive calls. No rule for the calls is given here.
Test system: CCRIS mutagenicity, Ames/micronucleus/aberration tests
Assay: CCRIS mutagenicity studies
[1] = Test System: AMES SALMONELLA TYPHIMURIUM, Strain/Indicator: TA100, Metabolic Activation: NONE, Method: STANDARD PLATE

Nc1ccc2cc3ccc(N)cc3nc2c1
mutagenic call (Test System: AMES SALMONELLA TYPHIMURIUM, Strain/Indicator: TA98, Metabolic Activation: HAMSTER, LIVER, S-9, AROCLOR 1254, Method: STANDARD PLATE): active; positive
mutagenic call (Test System: AMES SALMONELLA TYPHIMURIUM, Strain/Indicator: TA98, Metabolic Activation: HAMSTER, LIVER, S-9, Method: STANDARD PLATE): active; positive
mutagenic call (Test System: AMES SALMONELLA TYPHIMURIUM, Strain/Indicator: TA98, Metabolic Activation: MOUSE, LIVER, S-9, AROCLOR 1254, Method: STANDARD PLATE): active; positive
mutagenic call (Test System: AMES SALMONELLA TYPHIMURIUM, Strain/Indicator: TA98, Metabolic Activation: MOUSE, LIVER, S-9, Method: STANDARD PLATE): active; positive
mutagenic call (Test System: AMES SALMONELLA TYPHIMURIUM, Strain/Indicator: TA98, Metabolic Activation: NONE, Method: FLUCTUATION (MICROTITER)): active; positive
mutagenic call (Test System: AMES SALMONELLA TYPHIMURIUM, Strain/Indicator: TA98, Metabolic Activation: RAT, LIVER, S-9, AROCLOR 1254, Method: STANDARD PLATE): active; positive
mutagenic call (Test System: AMES SALMONELLA TYPHIMURIUM, Strain/Indicator: TA98, Metabolic Activation: RAT, LIVER, S-9, Method: STANDARD PLATE): active; positive
mutagenic call [1]: inactive; negative
mutagenic call (Test System: AMES SALMONELLA TYPHIMURIUM, Strain/Indicator: TA100, Metabolic Activation: RAT, LIVER, S-9, AROCLOR 1254, Method: STANDARD PLATE): active; positive
mutagenic call (Test System: AMES SALMONELLA TYPHIMURIUM, Strain/Indicator: TA100, Metabolic Activation: RAT, LIVER, S-9, Method: STANDARD PLATE): inactive; negative
mutagenic call (Test System: AMES SALMONELLA TYPHIMURIUM, Strain/Indicator: TA1535, Metabolic Activation: MOUSE, LIVER, S-9, AROCLOR 1254, Method: STANDARD PLATE): inactive; negative
mutagenic call (Test System: AMES SALMONELLA TYPHIMURIUM, Strain/Indicator: TA1535, Metabolic Activation: NONE, Method: PREINCUBATION): inactive; negative
mutagenic call (Test System: AMES SALMONELLA TYPHIMURIUM, Strain/Indicator: TA1535, Metabolic Activation: NONE, Method: STANDARD PLATE): inactive; negative
mutagenic call (Test System: AMES SALMONELLA TYPHIMURIUM, Strain/Indicator: TA1535, Metabolic Activation: RAT, LIVER, S-9, AROCLOR 1254, Method: STANDARD PLATE): inactive; negative
mutagenic call (Test System: AMES SALMONELLA TYPHIMURIUM, Strain/Indicator: TA1535, Metabolic Activation: RAT, LIVER, S-9, TETRACHLOROBIPHENYL, Method: PREINCUBATION): inactive; negative
mutagenic call (Test System: AMES SALMONELLA TYPHIMURIUM, Strain/Indicator: TA1535, Metabolic Activation: RAT, LIVER, S-9, Method: STANDARD PLATE): inactive; negative
mutagenic call (Test System: AMES SALMONELLA TYPHIMURIUM, Strain/Indicator: TA1537, Metabolic Activation: HAMSTER, LIVER, S-9, AROCLOR 1254, Method: STANDARD PLATE): active; positive
mutagenic call (Test System: AMES SALMONELLA TYPHIMURIUM, Strain/Indicator: TA1537, Metabolic Activation: HAMSTER, LIVER, S-9, Method: STANDARD PLATE): active; positive
mutagenic call (Test System: AMES SALMONELLA TYPHIMURIUM, Strain/Indicator: TA1537, Metabolic Activation: MOUSE, LIVER, S-9, AROCLOR 1254, Method: STANDARD PLATE): active; positive
mutagenic call (Test System: AMES SALMONELLA TYPHIMURIUM, Strain/Indicator: TA1537, Metabolic Activation: MOUSE, LIVER, S-9, Method: STANDARD PLATE): active; positive
mutagenic call (Test System: AMES SALMONELLA TYPHIMURIUM, Strain/Indicator: TA1537, Metabolic Activation: NONE, Method: FLUCTUATION (MICROTITER)): active; positive
mutagenic call (Test System: AMES SALMONELLA TYPHIMURIUM, Strain/Indicator: TA1537, Metabolic Activation: NONE, Method: PREINCUBATION): active; positive
mutagenic call (Test System: AMES SALMONELLA TYPHIMURIUM, Strain/Indicator: TA1537, Metabolic Activation: RAT, LIVER, S-9, AROCLOR 1254, Method: STANDARD PLATE): active; positive
mutagenic call (Test System: AMES SALMONELLA TYPHIMURIUM, Strain/Indicator: TA1537, Metabolic Activation: RAT, LIVER, S-9, TETRACHLOROBIPHENYL, Method: PREINCUBATION): active; positive
mutagenic call (Test System: AMES SALMONELLA TYPHIMURIUM, Strain/Indicator: TA1537, Metabolic Activation: RAT, LIVER, S-9, Method: STANDARD PLATE): active; positive
mutagenic call (Test System: AMES SALMONELLA TYPHIMURIUM, Strain/Indicator: TA1538, Metabolic Activation: HAMSTER, LIVER, S-9, AROCLOR 1254, Method: STANDARD PLATE): active; positive
mutagenic call (Test System: AMES SALMONELLA TYPHIMURIUM, Strain/Indicator: TA1538, Metabolic Activation: HAMSTER, LIVER, S-9, Method: STANDARD PLATE): active; positive
mutagenic call (Test System: AMES SALMONELLA TYPHIMURIUM, Strain/Indicator: TA1538, Metabolic Activation: MOUSE, LIVER, S-9, AROCLOR 1254, Method: STANDARD PLATE): active; positive
mutagenic call (Test System: AMES SALMONELLA TYPHIMURIUM, Strain/Indicator: TA1538, Metabolic Activation: MOUSE, LIVER, S-9, Method: STANDARD PLATE): active; positive
mutagenic call (Test System: AMES SALMONELLA TYPHIMURIUM, Strain/Indicator: TA1538, Metabolic Activation: NONE, Method: PREINCUBATION): inactive; negative
mutagenic call (Test System: AMES SALMONELLA TYPHIMURIUM, Strain/Indicator: TA1538, Metabolic Activation: RAT, LIVER, S-9, AROCLOR 1254, Method: STANDARD PLATE): active; positive
mutagenic call (Test System: AMES SALMONELLA TYPHIMURIUM, Strain/Indicator: TA1538, Metabolic Activation: RAT, LIVER, S-9, TETRACHLOROBIPHENYL, Method: PREINCUBATION): active; positive
mutagenic call (Test System: AMES SALMONELLA TYPHIMURIUM, Strain/Indicator: TA1538, Metabolic Activation: RAT, LIVER, S-9, Method: STANDARD PLATE): active; positive
mutagenic call (Test System: AMES SALMONELLA TYPHIMURIUM, Strain/Indicator: TA1977, Metabolic Activation: NONE, Method: PREINCUBATION): active; positive
mutagenic call (Test System: AMES SALMONELLA TYPHIMURIUM, Strain/Indicator: TA1977, Metabolic Activation: RAT, LIVER, S-9, TETRACHLOROBIPHENYL, Method: PREINCUBATION): active; positive
mutagenic call (Test System: AMES SALMONELLA TYPHIMURIUM, Strain/Indicator: TA1978, Metabolic Activation: RAT, LIVER, S-9, TETRACHLOROBIPHENYL, Method: PREINCUBATION): active; positive
mutagenic call (Test System: AMES SALMONELLA TYPHIMURIUM, Strain/Indicator: TA7001, Metabolic Activation: NONE, Method: FLUCTUATION (MICROTITER)): inactive; negative
mutagenic call (Test System: AMES SALMONELLA TYPHIMURIUM, Strain/Indicator: TA7002, Metabolic Activation: NONE, Method: FLUCTUATION (MICROTITER)): inactive; negative
mutagenic call (Test System: AMES SALMONELLA TYPHIMURIUM, Strain/Indicator: TA7003, Metabolic Activation: NONE, Method: FLUCTUATION (MICROTITER)): inactive; negative
mutagenic call (Test System: AMES SALMONELLA TYPHIMURIUM, Strain/Indicator: TA7004, Metabolic Activation: NONE, Method: FLUCTUATION (MICROTITER)): inactive; negative
mutagenic call (Test System: AMES SALMONELLA TYPHIMURIUM, Strain/Indicator: TA7005, Metabolic Activation: NONE, Method: FLUCTUATION (MICROTITER)): active; positive
mutagenic call (Test System: AMES SALMONELLA TYPHIMURIUM, Strain/Indicator: TA7006, Metabolic Activation: NONE, Method: FLUCTUATION (MICROTITER)): inactive; negative
mutagenic call (Test System: CHINESE HAMSTER OVARY, Strain/Indicator: CHO-K1-BH4 (HGPRT)/6-THIOGUANINE, Metabolic Activation: NONE, Method: SUSPENSION/PLATE): active; positive
mutagenic call (Test System: CHINESE HAMSTER V-79, Strain/Indicator: V-79/6-THIOGUANINE, Metabolic Activation: NONE, Method: FLASK ASSAY): active; positive
mutagenic call (Test System: E. COLI, Strain/Indicator: WP2 UVRA, Metabolic Activation: HAMSTER, LIVER, S-9, AROCLOR 1254, Method: STANDARD PLATE): inactive; negative
mutagenic call (Test System: E. COLI, Strain/Indicator: WP2 UVRA, Metabolic Activation: HAMSTER, LIVER, S-9, Method: STANDARD PLATE): inactive; negative
mutagenic call (Test System: E. COLI, Strain/Indicator: WP2 UVRA, Metabolic Activation: MOUSE, LIVER, S-9, Method: STANDARD PLATE): inactive; negative
mutagenic call (Test System: E. COLI, Strain/Indicator: WP2 UVRA, Metabolic Activation: NONE, Method: STANDARD PLATE): inactive; negative
mutagenic call (Test System: MOUSE LYMPHOMA, Strain/Indicator: L5178Y (TK+/TK-), Metabolic Activation: NONE, Method: SUSPENSION/PLATE): active; positive

O=[N+]([O-])c1ccc(/C=C/c2cccc(CO)n2)o1
mutagenic call (Test System: UDS HUMAN FIBROBLASTS, Strain/Indicator: THY INCORP (NON-S-PHASE), Metabolic Activation: NONE, Method: AUTORADIOGRAPHY): active; positive

Nc1cc(Cl)cc(Cl)c1O
mutagenic call (Test System: AMES SALMONELLA TYPHIMURIUM, Strain/Indicator: TA98, Metabolic Activation: NONE, Method: PREINCUBATION): inactive; negative
mutagenic call (Test System: AMES SALMONELLA TYPHIMURIUM, Strain/Indicator: TA98, Metabolic Activation: NONE, Method: STANDARD PLATE): inactive; negative
mutagenic call (Test System: AMES SALMONELLA TYPHIMURIUM, Strain/Indicator: TA100, Metabolic Activation: NONE, Method: PREINCUBATION): inactive; negative
mutagenic call [1]: inactive; negative
mutagenic call (Test System: CHINESE HAMSTER V-79, Strain/Indicator: V-79/6-THIOGUANINE, Metabolic Activation: NONE): inactive; negative
